Laboratory results taken from ChEMBL document CHEMBL5724558, “Image-based profiling of drug vulnerabilities in CRC organoids” (2024).
“And” between values parts separate entries of the source, which are not always exact repeats. Equal values may be shown once.

Assays:
Format in all cases: functional, Homo sapiens
Design in all cases: dose or concentration left out as unconfirmed
Colon cancer organoid [1] = test: (§1) Image-based profiling of donated chemical probes and chemogenomic kinase set in O21 CRC organoid. Image analysis is performed on the sum area metric, and the data were normalized to the DMSO control. After imaging the organoid viability is measured using the OneGloEX Luciferase Assay System. The normalized viability data and sum area are reported.
Colon cancer organoid [2] = test: as §1, with “O09” for “O21”
Colon cancer organoid [3] = test: as §1, with “O06” for “O21”

| Compound | Cell Viability (Colon cancer organoid [1]; Replication number 1) | Cell Viability (Colon cancer organoid [1]; Replication number 2) | Cell Viability (Colon cancer organoid [2]; Replication number 1) | Cell Viability (Colon cancer organoid [2]; Replication number 2) | Cell Viability (Colon cancer organoid [3]; Replication number 1) | Cell Viability (Colon cancer organoid [3]; Replication number 2) |
| --- | --- | --- | --- | --- | --- | --- |
| Cn1cc(Cl)c2c(Oc3c(F)cc(Nc4cc(Cl)nc(N)n4)cc3F)ccnc21 [BAY-4900] | 120.472% and 95.4893% | 100.602% and 97.8926% | 73.6043% and 111.604% | 79.5869% and 90.6027% | 133.628% and 127.773% | 114.004% and 114.608% |
| C[C@H]1CCCN1Cc1nc2cc(NC(=O)c3ccc4cnccc4c3)ccc2[nH]1 | 78.6097% and 94.644% | 77.6333% and 81.0859% | 74.8227% and 68.6244% | 83.8481% and 67.5641% | 103.275% and 86.0134% | 127.654% and 99.8938% |
| O=C(NNS(=O)(=O)c1ccccc1)c1cc(-c2ccnnc2)ccc1F [WM-2474] | 113.818% and 97.6719% | 86.2106% and 79.5377% | 112.004% and 108.416% | 87.165% and 94.3695% | 103.665% and 117.571% | 96.3756% and 98.5103% |
| O=C(O)c1ccc(-c2coc3ncc(-c4ccccc4)cc23)cc1Cl | 190.076% and 113.91% | 188.696% and 75.9402% | 308.758% and 113.836% | 206.023% and 93.0484% | 151.185% and 107.979% | 124.809% and 78.3539% |
| CCC(=O)Nc1cccc(Oc2nc(Nc3ccc(N4CCN(C)CC4)cc3OC)ncc2Cl)c1 | 76.6045% and 88.0836% | 80.6193% and 93.271% | 45.1468% and 48.3715% | 57.9255% and 59.3892% | 127.075% and 113.507% | 91.2646% and 89.6658% |
| CCN(C(=O)CO)[C@H]1CN(/C(=N\C#N)Nc2cccc(OC(F)F)c2)N=C1c1ccc(Cl)c(Cl)c1 | 56.7523% and 64.6636% | 98.5958% and 108.473% | 95.5807% and 90.881% | 163.22% and 117.738% | 122.514% and 121.772% | 131.133% and 123.792% |
| O=C(Nc1cccnc1)c1cc(-c2ccnc(F)c2)ccc1OCc1ccccc1 | 112.865% and 104.808% | 105.956% and 96.1497% | 214.708% and 117.189% | 126.13% and 109.87% | 114.96% and 114.62% | 124.178% and 97.892% |
| COc1cc(OC)cc(-c2noc(N3CCN(C)C4(CCN(c5ccnc(C)c5)CC4)C3)n2)c1 | 102.094% and 140.496% | 79.0091% and 95.0477% | 147.791% and 90.4173% | 237.296% and 126.576% | 99.0993% and 95.9195% | 203.392% and 146.256% |
| CC(C)(O)CNc1ncc(-c2ccnc(Nc3ccnc(Cl)c3)n2)c(CC2CC2)n1 | 40.3035% and 73.5889% | 46.8315% and 88.665% | 50.3707% and 42.8861% | 72.1392% and 56.6897% | 43.9028% and 71.665% | 60.8585% and 108.175% |
| O=C(c1ccc(F)c(F)c1Nc1ccc(I)cc1F)N1CC(O)([C@@H]2CCCCN2)C1 [COBIMETINIB] | 18.944% and 20.5157% | 17.3316% and 26.4843% | 5.994% and 14.4616% | – | 2.921% and 4.652% | 3.136% and 6.437% |
| O=C(Nc1nc2cccc(-c3ccc(CN4CCS(=O)(=O)CC4)cc3)n2n1)C1CC1 [FILGOTINIB] | 108.054% and 94.216% | 115.207% and 111.119% | 112.727% and 81.0348% | 92.6922% and 97.9922% | 93.5364% and 106.162% | 112.473% and 105.09% |
| O=C(Nc1cnc(Oc2ccc(F)cc2)nc1)N1CCc2ncccc2[C@@H]1c1ccc(F)cc1 [BAY-899] | 121.151% and 99.8545% | 98.3369% and 80.5574% | 90.6617% and 101.288% | 105.766% and 101.705% | 95.5159% and 118.785% | 100.58% and 108.361% |
| C[C@]1(O)C[C@@H](c2nc(-c3ccc4ccc(-c5ccccc5)nc4c3)c3c(N)nccn32)C1 [LINSITINIB] | 65.7988% and 93.6585% | 45.8203% and 78.3015% | 48.5771% and 41.3901% | 29.8323% and 45.6217% | 20.2503% and 50.5216% | 16.9529% and 40.5141% |
| CN(C)C(=O)c1sc2nc(N3CCC(S(C)(=O)=O)CC3)cc(C(F)(F)F)c2c1N [BI-5026] | 97.3% and 81.8479% | 110.845% and 100.952% | 136.068% and 99.7874% | 102.802% and 111.221% | 118.242% and 106.64% | 81.5646% and 70.3988% |
| CNc1cc(Oc2cc(C(=O)Nc3cc(N4CCN(C)CC4)cc(C(F)(F)F)c3)ccc2C)ncn1 | 91.6844% and 105.366% | 86.288% and 119.755% | 67.5725% and 54.8543% | 89.2328% and 78.5558% | 159.785% and 126.415% | 134.323% and 110.437% |
| COc1ncc(-c2ccc3nccc(-c4ccnnc4)c3c2)cc1NS(=O)(=O)c1ccc(F)cc1F [OMIPALISIB] | 14.5309% and 34.1185% | – | 14.1746% and 4.189% | 12.1613% and 4.9671% | 2.947% and 9.014% | 1.718% and 5.799% |
| Clc1cccc(-c2nnnn2Cc2cccnc2)c1Cl | 103.002% and 95.4722% | 106.874% and 109.184% | 192.597% and 128.776% | 120.929% and 99.0142% | 110.934% and 130.913% | 90.04% and 81.9662% |
| COc1cc(C)c(Sc2cnc(NC(=O)c3ccc(CNC(C)C(C)(C)C)cc3)s2)cc1C(=O)N1CCN(C(C)=O)CC1 (configuration not stated) | 74.3447% and 68.0139% | 84.4374% and 89.8165% | 101.639% and 97.9897% | 78.5606% and 100.962% | 76.6912% and 109.056% | 80.9572% and 86.581% |
| COc1ccccc1C(=O)Nc1cc2c(cc1N1CCNCC1C)n(C)c(=O)n2C (configuration not stated) | 113.606% and 138.145% | 93.8896% and 107.936% | 86.1318% and 106.414% | 94.809% and 101.774% | 207.592% and 157.772% | 161.771% and 130.961% |
| Nc1ncnc2c1ccn2[C@@H]1O[C@H]([C@H](O)c2ccccc2)[C@@H](O)[C@H]1O | 74.1764% and 78.772% | 70.798% and 78.401% | 67.0274% and 58.6553% | 77.7398% and 60.4371% | 27.0632% and 78.2819% | – |
